Reference: PMC9250534, “Synthesis and direct assay of large macrocycle diversities by combinatorial late-stage modification at picomole scale” (Nature Communications, 2022)
Numbered stars: 1 amine (or outer) side, 2 acyl side, 3 side chain; on linkers, the order of the positions; unused ones are H or OH. Bridge positions count the residues as written; N and C are the ends. Square brackets hold non-standard residues; d marks the D form. Peptide text beside a SMILES is read from it. * marks the point of attachment. 2Thenoyl(5-Cl) = O=C(c1ccc(Cl)s1)*; Cysteamide = C(CS[*:3])N[*:1]; Mpa = O=C(O)CCS

Target: T1, thrombin (Homo sapiens, UniProt P00734)
T1 construct: consists of two polypeptide chains of 36 (light chain) and 259 amino acid
Assay: Thrombin inhibition screen of crude macrocycle reactions (residual thrombin activity, fluorogenic substrate Z-Gly-Gly-Arg-AMC)
Assay type: biochemical
Details: 10 µM macrocycle concentration; for percent residual thrombin activity: crude reactions, Library 1a-l, scaffold AA1-AA2-AA3 combined with 1-16 or '-'; for % thrombin activity, Original screen / % thrombin activity, Repeat screen: macrocycles containing acid 14, crude reaction; for % thrombin activity, Repeat screen: replicate reaction and screen
Procedure: As a proof-of-concept, we screened the macrocycle library for inhibitors against thrombin, which is the central blood coagulation protease and an important therapeutic target. We conducted the screen for thrombin-inhibiting macrocycles in 384-well reaction plates. Briefly, each well contained a unique macrocycle (10 μM), 5 μL of thrombin (2 nM final conc.), and subsequently, 5 µL of a fluorogenic substrate to measure the residual thrombin activity and the extent of protease inhibition.
The assays were performed in 384-well plates using Tris buffer at pH 7.4 (100 mM Tris-Cl, 150 mM NaCl, 10 mM MgCl2, 1 mM CaCl2, 0.1% w/v BSA, 0.01% v/v Triton-X100, and 0.6% v/v DMSO) using thrombin at a final concentration of 2 nM and the fluorogenic substrate Z-Gly-Gly-Arg-AMC at a final concentration of 50 μM. Thrombin (5 μL, 6 nM) in the Tris-Cl buffer described above was added to each peptide using a BioTek MultiFlo microplate dispenser, and incubated for 10 min at room temperature. […] Data was collected and exported using the Tecan Infinite M200 Pro instrument software. […] For the negative controls (20 wells containing DMSO but no macrocycle), an average slope was calculated. The percent of thrombin inhibition was calculated by dividing the slopes and multiplying the results by 100.

percent residual thrombin activity	% thrombin activity, Original screen	% thrombin activity, Repeat screen	SMILES
104.596%	–	–	O=C1CCSSCCNC(=O)[C@H](CCCCNC(=O)c2ccccc2)NC(=O)[C@H](Cc2ccc(O)cc2)NC(=O)C2(CC2)CN1 [B6-Y-D1/1]
106.813%	–	–	O=C1CCSSCCNC(=O)[C@H](CCCCNC(=O)c2cnccn2)NC(=O)[C@H](Cc2ccc(O)cc2)NC(=O)C2(CC2)CN1 [B6-Y-D1/2]
104.034%	–	–	COc1ccc(C(=O)NCCCC[C@@H]2NC(=O)[C@H](Cc3ccc(O)cc3)NC(=O)C3(CC3)CNC(=O)CCSSCCNC2=O)cn1 [B6-Y-D1/10]
105.574%	–	–	O=C1CCSSCCNC(=O)[C@H](CCCCNC(=O)c2c[nH]c(=O)[nH]c2=O)NC(=O)[C@H](Cc2ccc(O)cc2)NC(=O)C2(CC2)CN1 [B6-Y-D1/11]
101.278%	–	–	O=C1CCSSCCNC(=O)[C@H](CCCCNC(=O)Cc2c[nH]c3ccccc23)NC(=O)[C@H](Cc2ccc(O)cc2)NC(=O)C2(CC2)CN1 [B6-Y-D1/12]
106.992%	–	–	O=C1CCSSCCNC(=O)[C@H](CCCCNC(=O)COc2ccccc2)NC(=O)[C@H](Cc2ccc(O)cc2)NC(=O)C2(CC2)CN1 [B6-Y-D1/13]
105.617%	–	–	Cc1nnsc1C(=O)NCCCC[C@@H]1NC(=O)[C@H](Cc2ccc(O)cc2)NC(=O)C2(CC2)CNC(=O)CCSSCCNC1=O [B6-Y-D1/15]
103.228%	–	–	O=C1CCSSCCNC(=O)[C@H](CCCCNC(=O)c2ccco2)NC(=O)[C@H](Cc2ccc(O)cc2)NC(=O)C2(CC2)CN1 [B6-Y-D1/16]
104.679%	–	–	NCCCC[C@@H]1NC(=O)[C@H](Cc2ccc(O)cc2)NC(=O)C2(CC2)CNC(=O)CCSSCCNC1=O [B6-Y-D1/-]
–	91.5%	96.1%	O=C1CNC(=O)[C@@H]2CCCN2C(=O)[C@@H](NC(=O)c2ccc(Cl)s2)CSSCCNC(=O)[C@H](Cc2ccccc2)N1 [C B1 G F] ({2Thenoyl(5-Cl)}-CPGF-Cysteamide; disulfide 1-C)
–	98.5%	102.3%	O=C1CNC(=O)[C@H](Cc2ccc(O)cc2)NC(=O)[C@@H]2CCCN2C(=O)[C@@H](NC(=O)c2ccc(Cl)s2)CSSCCN1 [C B1 Y G] ({2Thenoyl(5-Cl)}-CPYG-Cysteamide; disulfide 1-C)
–	110.0%	114.7%	CC[C@H](C)[C@@H]1NC(=O)CNC(=O)CCNC(=O)[C@@H](NC(=O)c2ccc(Cl)s2)CSSCCNC1=O [C B2 G I]
–	112.4%	112.3%	O=C1CCNC(=O)[C@@H](NC(=O)c2ccc(Cl)s2)CSSCCNC(=O)[C@@H](CO)NC(=O)CN1 [C B2 G s]
–	103.1%	116.7%	O=C1CNC(=O)c2ccc(cc2)CNC(=O)[C@@H](NC(=O)c2ccc(Cl)s2)CSSCCNC(=O)[C@H](Cc2cnc[nH]2)N1 [C B3 G H]
–	106.0%	113.6%	CC[C@H](C)[C@@H]1NC(=O)c2ccc(cc2)CNC(=O)[C@@H](NC(=O)c2ccc(Cl)s2)CSSCCNC(=O)CNC1=O [C B3 I G]
–	107.3%	115.5%	CC(C)C1NC(=O)C2CCCN(C2)C(=O)C(NC(=O)c2ccc(Cl)s2)CSSCCNC(=O)CNC1=O (stereo not shown) [C B4 V G]
–	109.3%	114.8%	CC(C)C[C@@H]1NC(=O)C2(CC2)CNC(=O)CNC(=O)[C@@H](NC(=O)c2ccc(Cl)s2)CSSCCNC1=O [C G B6 L]
–	93.7%	99.7%	O=C1CNC(=O)[C@@H](NC(=O)c2ccc(Cl)s2)CSSCCNC(=O)c2ccc(cc2)CNC(=O)[C@@H](CO)N1 [C G s B3]

percent residual thrombin activity	% thrombin activity, Original screen	% thrombin activity, Repeat screen	SMILES
–	111.1%	111.8%	CC(C)C1NC(=O)C(NC(=O)c2ccc(Cl)s2)CSSCCNC(=O)c2cccc(c2)CNC(=O)CNC1=O (stereo not shown) [C v G B5]
96.3758%	–	–	CC1NC(=O)C2CCCN2C(=O)C(CCCCNC(=O)c2ccc(Cl)s2)NC(=O)CCSSCCNC1=O (stereo not shown) [D1-B1-a/14] ([Mpa]K(2Thenoyl(5-Cl))PA-Cysteamide; disulfide 1-C; configuration not given here)
109.951%	–	–	O=C1CCSSCCNC(=O)[C@@H](Cc2ccc(O)cc2)NC(=O)CCNC(=O)[C@H](CCCCNC(=O)c2c[nH]c(=O)cn2)N1 [D1-B2-y/9]
108.421%	–	–	COc1ccc(C(=O)NCCCC[C@@H]2NC(=O)CCSSCCNC(=O)[C@@H](Cc3ccc(O)cc3)NC(=O)CCNC2=O)cn1 [D1-B2-y/10]
114.281%	–	–	O=C1CCSSCCNC(=O)[C@@H](Cc2ccc(O)cc2)NC(=O)CCNC(=O)[C@H](CCCCNC(=O)c2ccco2)N1 [D1-B2-y/16]
103.332%	–	–	CC(C)CC(=O)NCCCC[C@@H]1NC(=O)CCSSCCNC(=O)[C@H](CO)NC(=O)c2ccc(cc2)CNC1=O [D1-B3-S/8]
105.178%	–	–	O=C1CCSSCCNC(=O)[C@H](CO)NC(=O)c2ccc(cc2)CNC(=O)[C@H](CCCCNC(=O)c2c[nH]c(=O)[nH]c2=O)N1 [D1-B3-S/11]
103.115%	–	–	Cc1nnsc1C(=O)NCCCC[C@@H]1NC(=O)CCSSCCNC(=O)[C@H](CO)NC(=O)c2ccc(cc2)CNC1=O [D1-B3-S/15]
108.143%	–	–	CC(C)CC(=O)NCCCC[C@@H]1NC(=O)CCSSCCNC(=O)[C@@H](Cc2ccc(O)cc2)NC(=O)[C@H]2CCCN(C2)C1=O [D1-B4-y/8]
105.223%	–	–	O=C1CCSSCCNC(=O)C(Cc2ccc(O)cc2)NC(=O)C2CCCN(C2)C(=O)C(CCCCNC(=O)c2c[nH]c(=O)[nH]c2=O)N1 (stereo not shown) [D1-B4-y/11]
103.012%	–	–	O=C(Cc1c[nH]c2ccccc12)NCCCCC1NC(=O)CCSSCCNC(=O)C(Cc2ccc(O)cc2)NC(=O)C2CCCN(C2)C1=O (stereo not shown) [D1-B4-y/12]
108.72%	–	–	Cc1nnsc1C(=O)NCCCC[C@@H]1NC(=O)CCSSCCNC(=O)[C@@H](Cc2ccc(O)cc2)NC(=O)[C@H]2CCCN(C2)C1=O [D1-B4-y/15]
110.104%	–	–	NCCCC[C@@H]1NC(=O)CCSSCCNC(=O)[C@H]2CCCN(C2)C(=O)[C@H](Cc2ccccc2)NC1=O [D1-F-B4/-]
113.964%	–	–	O=C1CCSSCCNC(=O)C2(CC2)CNC(=O)[C@H](Cc2c[nH]cn2)NC(=O)[C@H](CCCCNC(=O)c2cnccn2)N1 [D1-H-B6/2]
113.747%	–	–	Cc1nnsc1C(=O)NCCCC[C@@H]1NC(=O)CCSSCCNC(=O)C2(CC2)CNC(=O)[C@H](Cc2cnc[nH]2)NC1=O [D1-H-B6/15]
116.392%	–	–	NCCCC[C@@H]1NC(=O)CCSSCCNC(=O)C2(CC2)CNC(=O)[C@H](Cc2cnc[nH]2)NC1=O [D1-H-B6/-]
106.199%	–	–	CC[C@H](C)[C@@H]1NC(=O)[C@H](CCCCNC(=O)COc2ccccc2)NC(=O)CCSSCCNC(=O)C2(CC2)CNC1=O [D1-I-B6/13]
103.501%	–	–	CC[C@H](C)[C@@H]1NC(=O)[C@H](CCCCNC(=O)c2ccco2)NC(=O)CCSSCCNC(=O)C2(CC2)CNC1=O [D1-I-B6/16]
